The source made the active and inactive calls. No cut-off for these calls is given here.
What was measured:
U373-MAGI [1] = assay: Reduction in 5-aza-dCTP level in human U373-MAGI cells at 200 nM preincubated for 2 hrs followed by 5-aza-C addition measured after 4 hrs by LC-MS/MS analysis; type: functional, cell-based
U373-MAGI [2] = assay: Reduction in dGTP level in human U373-MAGI cells at 50 nM after 6 hrs by LC-MS/MS analysis; type: functional, cell-based
[3] = Cytotoxicity against human U373-MAGI cells at 50 nM measured at 72 hrs by Celltiter-Glo luminescent cell viability assay; type: cell-based; details: 0.05 µM
[4] = system: Human immunodeficiency virus 1; assay: Antiviral activity against VSV-G pseudotyped HIV-1 NL4-3 infected in human U373-MAGI cells assessed as reduction in viral infectivity at 50 nM incubated for 4 hrs prior to viral infection measured at 72 hrs post infection by flow cytometric analysis; type: functional, organism-based
U373-MAGI [5] = assay: Increase in 5-aza-dCTP/dCTP ratio in human U373-MAGI cells at 200 nM preincubated for 2 hrs followed by 5-aza-C addition measured after 4 hrs by LC-MS/MS analysis relative to 5-aza-C; type: functional, cell-based
[6] = Reduction in dATP level in human U373-MAGI cells at 50 nM after 6 hrs by LC-MS/MS analysis; type: functional; set-up: scale not given: the % may be the effect or the level left
U373-MAGI [7] = assay: Reduction in dATP level in human U373-MAGI cells at 200 nM after 6 hrs by LC-MS/MS analysis; type: functional, cell-based
U373-MAGI [8] = assay: Reduction in dTTP level in human U373-MAGI cells at 50 nM after 6 hrs by LC-MS/MS analysis; type: functional, cell-based
U373-MAGI [9] = assay: Reduction in dCTP level in human U373-MAGI cells at 200 nM after 6 hrs by LC-MS/MS analysis; type: functional, cell-based
U373-MAGI [10] = assay: Reduction in dCTP level in human U373-MAGI cells at 50 nM after 6 hrs by LC-MS/MS analysis; type: functional, cell-based
U373-MAGI [11] = assay: Reduction in dTTP level in human U373-MAGI cells at 200 nM after 6 hrs by LC-MS/MS analysis; type: functional, cell-based
U373-MAGI [12] = assay: Reduction in dGTP level in human U373-MAGI cells at 200 nM after 6 hrs by LC-MS/MS analysis; type: functional, cell-based
U373-MAGI [13] = assay: Reduction in dCTP level in human U373-MAGI cells at 50 nM preincubated for 2 hrs followed by 5-aza-C addition measured after 4 hrs by LC-MS/MS analysis; type: functional, cell-based
U373-MAGI [14] = assay: Reduction in dRGU-TP level in human U373-MAGI cells at 50 nM preincubated for 2 hrs followed by 5-aza-C addition measured after 4 hrs by LC-MS/MS analysis; type: functional, cell-based
U373-MAGI [15] = assay: Effect on 5-aza-dCTP level in human U373-MAGI cells at 200 nM preincubated for 2 hrs followed by 5-aza-dC addition measured after 4 hrs by LC-MS/MS analysis; type: functional, cell-based
U373-MAGI [16] = assay: Reduction in dCTP level in human U373-MAGI cells at 200 nM preincubated for 2 hrs followed by 5-aza-dC addition measured after 4 hrs by LC-MS/MS analysis relative to 5-aza-dC; type: functional, cell-based
U373-MAGI [17] = assay: Increase in 5-aza-dCTP/dCTP ratio in human U373-MAGI cells at 50 nM preincubated for 2 hrs followed by 5-aza-dC addition measured after 4 hrs by LC-MS/MS analysis relative to 5-aza-dC; type: functional, cell-based
U373-MAGI [18] = assay: Reduction in 5-aza-dCTP level in human U373-MAGI cells at 50 nM preincubated for 2 hrs followed by 5-aza-C addition measured after 4 hrs by LC-MS/MS analysis; type: functional, cell-based
U373-MAGI [19] = assay: Effect on dRGU-TP level in human U373-MAGI cells at 200 nM preincubated for 2 hrs followed by 5-aza-dC addition measured after 4 hrs by LC-MS/MS analysis; type: functional, cell-based
U373-MAGI [20] = assay: Increase in 5-aza-dCTP/dCTP ratio in human U373-MAGI cells at 200 nM preincubated for 2 hrs followed by 5-aza-dC addition measured after 4 hrs by LC-MS/MS analysis relative to 5-aza-dC; type: functional, cell-based
U373-MAGI [21] = assay: Effect on 5-aza-dCTP level in human U373-MAGI cells at 50 nM preincubated for 2 hrs followed by 5-aza-dC addition measured after 4 hrs by LC-MS/MS analysis; type: functional, cell-based
U373-MAGI [22] = assay: Increase in 5-aza-dCTP/dCTP ratio in human U373-MAGI cells at 50 nM preincubated for 2 hrs followed by 5-aza-C addition measured after 4 hrs by LC-MS/MS analysis relative to 5-aza-C; type: functional, cell-based
U373-MAGI [23] = assay: Effect on dRGU-TP level in human U373-MAGI cells at 50 nM preincubated for 2 hrs followed by 5-aza-dC addition measured after 4 hrs by LC-MS/MS analysis; type: functional, cell-based
[24] = system: Human immunodeficiency virus 1; assay: Potentiation of 5-Aza-C-induced antiviral activity against VSV-G pseudotyped HIV-1 NL4-3 infected in human U373-MAGI cells assessed as decrease in 5-Aza-C EC50 at 50 nM preincubated for 2 hrs followed by 5-Aza-C addition for 2 hrs and subsequent viral infection measured at 72 hrs post infection by flow cytometric analysis relative to control; type: functional
U373-MAGI [25] = assay: Reduction in dCTP level in human U373-MAGI cells at 200 nM preincubated for 2 hrs followed by 5-aza-C addition measured after 4 hrs by LC-MS/MS analysis relative to 5-aza-C; type: functional, cell-based
U373-MAGI [26] = assay: Reduction in dRGU-TP level in human U373-MAGI cells at 200 nM preincubated for 2 hrs followed by 5-aza-C addition measured after 4 hrs by LC-MS/MS analysis; type: functional, cell-based
U373-MAGI [27] = assay: Reduction in dCTP level in human U373-MAGI cells at 50 nM preincubated for 2 hrs followed by 5-aza-dC addition measured after 4 hrs by LC-MS/MS analysis relative to 5-aza-dC; type: functional, cell-based

Nc1nc(Cl)nc2c1ncn2[C@@H]1O[C@H](CO)[C@@H](O)[C@@H]1F [CLOFARABINE]
Activity (U373-MAGI [1]): Active | Activity (U373-MAGI [2]): inactive | Activity [3]: Non-toxic | Activity [4]: Active | Activity (U373-MAGI [5]): inactive | Activity [6]: 30% | Activity (U373-MAGI [7]): Active | Activity (U373-MAGI [8]): inactive | Activity (U373-MAGI [9]): Active | Activity (U373-MAGI [10]): inactive | Activity (U373-MAGI [11]): inactive | Activity (U373-MAGI [12]): Active | Activity (U373-MAGI [13]): Active | Activity (U373-MAGI [14]): inactive | Activity (U373-MAGI [15]): inactive | Activity (U373-MAGI [16]): Active | Activity (U373-MAGI [17]): Active | Activity (U373-MAGI [18]): inactive | Activity (U373-MAGI [19]): inactive | Activity (U373-MAGI [20]): Active | Activity (U373-MAGI [21]): inactive | Activity (U373-MAGI [22]): inactive | Activity (U373-MAGI [23]): inactive | fold change (FC) [24]: 2.5 | Activity (U373-MAGI [25]): Active | Activity (U373-MAGI [26]): Active | Activity (U373-MAGI [27]): Active
